Experimental findings from PMC11396746, “Stability Evaluation and Pharmacokinetic Profiling of Vepdegestrant in Rodents Using Liquid Chromatography–Tandem Mass Spectrometry” (Molecules, 2024) are described below.

The series in a line: Pharmacokinetic study in male SD rats. The note with it: rat. The class given is in vivo. As to the method: Twelve healthy male ICR mice (6 weeks old, 27.5–30.5 g) and 10 healthy male Sprague–Dawley (SD) rats (7 weeks old, 195.5–212.0 g) were acquired from Orient Bio Inc. (Seongnam, Republic of Korea) and used for PK studies. The animals were kept in rooms in a temperature range of 20–25 °C, humidity of 40–60%, and a 12-h light/dark cycle. Before the experiment, mice were fasted for 4 h, whereas rats were fasted for 14 h, with only water provided during the fasting period. After 4 h of drug administration, animals were provided with free access to food and water. All animal experiments were approved by the Institutional Animal Care and Use Committee of the Chungnam National University (202310A-CNU-178; Daejeon, Republic of Korea).
For the PK studies in rats, a vepdegestrant dosing solution was prepared using a combination of DMSO, PEG 400, cremophor EL, and saline (5:40:2.5:52.5, v/v/v/v). The dosages were set at 2 and 5 mg/kg for IV and PO, respectively, consistent with mouse PK studies. The dose volumes were 2 and 5 mL/kg IV and PO, respectively. Blood samples (100 µL) were collected from the jugular vein using heparinized syringes at 0.08 (IV only), 0.25, 0.5, 1, 2, 4, 8, and 24 h post vepdegestrant administration. Blood samples were immediately centrifuged at 12,032 g under 25 °C for 5 min, and plasma aliquots (20 μL) were stored at −20 °C until HPLC-MS/MS analysis.
The collected plasma samples from mice or rats (20 µL) were added with IS (20 µL) and ACN (160 µL). Subsequently, the mixture was vigorously mixed for 10 min and centrifuged at 17,054× g under 25 °C for 10 min. An aliquot of the supernatant (100 μL) was taken, and a volume of 5 μL was injected for HPLC-MS/MS analysis. PK parameters were calculated using Phoenix® 8.3 software (Certara L.P., Princeton, NJ, USA), as described previously.

Setting [1] is: male, Sprague-Dawley, plasma, IV 2 mg/kg.
Setting [2] is: male, Sprague-Dawley, plasma, PO 5 mg/kg.

Each structure is given as a SMILES string. Like-named read-outs stand apart in the source and are kept apart here.

Take `O=C1CC[C@H](N2Cc3cc(N4CCN(CC5CCN(c6ccc([C@@H]7c8ccc(O)cc8CC[C@@H]7c7ccccc7)cc6)CC5)CC4)ccc3C2=O)C(=O)N1` [vepdegestrant, Vepdegestrant]: under setting [1], the Cmax (as a rule, the peak of the concentration-time curve) was found to be 850 ± 95 ng/mL; the mean residence time (MRT) (usually the average time that molecules of a dose stay in the body) came to 4.14 ± 0.348 h; the Tmax (as a rule, the time at which the peak concentration occurs) turned out to be 0.083 h; the clearance (usually the rate of elimination divided by the concentration) was 17.6 mL/min/kg. Besides, the half-life (as a rule, the time in which the quantity being followed falls by half) under setting [1] was 3.97 ± 0.284 h. Also, under setting [2], the highest concentration (Cmax) turned out to be 108 ± 38 ng/mL, the MRT was 6.54 ± 0.965 h, the Tmax was 3.2 ± 2.95 h and the half-life is 4.07 ± 0.418 h. For the same compound, the bioavailability – broadly, dose-corrected exposure relative to a reference, in per cent – (male, Sprague-Dawley, plasma, PO 5 mg/kg vs IV 2 mg/kg, read-out: BA (oral bioavailability)) is 24.1 ± 9.39%. The Vd (male, Sprague-Dawley, plasma, intravenous, 2 mg/kg, read-out: volume of distribution) was more than 1 L/kg. Moreover, the Vd (male, Sprague-Dawley, plasma, iv, 2 mg/kg, IV 2 mg/kg, read-out: Vss) was found to be 4.43 ± 0.3 L/kg. Where the note is “IV 2 mg/kg”, the AUCinf was 1900 ± 90 ng·h/mL and the AUClast stood at 1880 ± 84 ng·h/mL. Besides, the distribution volume (Vss) (usually the apparent volume that relates the amount in the body to the concentration in plasma or blood) (IV 2 mg/kg, 2 mg/kg) is 4.354 ± 0.3 L/kg. Further, for the setting “PO 5 mg/kg”, the AUCinf turned out to be 1150 ± 446 ng·h/mL and the AUClast was determined as 1120 ± 428 ng·h/mL. Also, where the note is “liver blood flow 3.3 L/h/kg”, the “clearance as % of liver blood flow” value is listed as “approximately 31.9%”.
